According to patent publication US20210283139A1, “BIFUNCTIONAL MOLECULES FOR TARGETING UCHL5” (AMPHISTA THERAPEUTICS LTD, priority 2018, published 2021):

Legend:
Assay type in all cases: cell-based
[1] = target: T1, Brd4 (S) (Homo sapiens, UniProt O60885); test: Time-dependent BET degradation, immunoblot, HEK293 cells; parameters: dose or concentration left out as unconfirmed; conditions: timecourse 0-8 h
T1 construct: endogenous in cells; host or cells: HEK293, HeLa
Procedure: (§1) Cell culture. HeLa (CCL-2) and HEK293 (CRL-1573) cells were purchased from ATCC and cultured in DMEM medium (Gibco) supplemented with 10% FBS, 100 μg/mL penicillin/streptomycin and L-glutamine. Cells were grown at 37° C. and 5% CO2, and were kept no longer than 30 passages. All cell lines were routinely tested for mycoplasma contamination using MycoAlert kit from Lonza.
(§2) Immunoblotting. proteins were separated by SDS-PAGE on NuPage 4-12% Bis-Tris gels, followed by transfer to Amersham Protran 0.45 NC nitrocellulose membrane (GE Healthcare) using wet transfer. Membranes were blocked using 5% w/v milk in Tris-buffered saline (TBS) with 0.1% Tween-20. Blots were probed (overnight at 4° C.) using anti-Brd2 (Abcam ab139690, 1:2,000 dilution), anti-Brd3 (Abcam ab50818, 1:500 dilution), and anti-Brd4 (Abcam ab128874, 1:1,000 dilution) primary antibodies, as appropriate. The next day, blots were washed with TBST and incubated (1 hr at RT) with anti-Tubulin hFAB-rhodamine (BioRad, 12004166) primary antibody, and either anti-rabbit IRDye 800CW (Licor 1:10,000 dilution) or anti-mouse IRDye 800CW (Licor 1:10,000 dilution) secondary antibody. Blots were developed using a Bio-Rad ChemiDoc MP Imaging System, and band quantification was performed using Image Studio software (LiCor). Band intensities were normalized to the tubulin loading control and reported as % of the average 0.1% DMSO vehicle intensity. Degradation data was plotted and analysed using Prism (Graphpad, version 8).
(§3) HeLa (3×10^5) and HEK293 (0.5×10^6) cells were seeded in standard 6-well plates (2 mL medium) overnight before treatment with compounds at 1 μM concentration, with a final DMSO concentration of 0.1% v/v. After incubation for the desired time (0-8 h), cells were washed with DPBS (Gibco) and lysed using 85 μL RIPA buffer (Sigma-Aldrich) supplemented with cOmplete Mini EDTA-free protease inhibitor cocktail (Roche) and benzonase. Lysates were clarified by centrifugation (20,000 g, 10 min, 4° C.) and the total protein content of the supernatant was quantified using a Bradford colorimetric assay. Samples were prepared using equal amounts of total protein and LDS sample buffer (Invitrogen).
(§4) Representative blots in FIG. 4 show depletion of Brd2, Brd3 and Brd4 protein levels following 1 μM treatment at various time points with representative compounds. Band intensities were normalized to the β-tubulin loading control and reported as % of the average 0.1% DMSO vehicle intensity, with each point representing mean±SEM of two independent experiments (n=2). Degradation data was plotted and analysed using Prism (Graphpad, version 8).
(§5) T½ (h) is the time required to deplete 50% of the protein relative to DMSO

[2] = target: T2, Brd4 (L) (Homo sapiens, UniProt O60885); test: as above; parameters: dose or concentration left out as unconfirmed; conditions: timecourse 0-8 h
T2 construct: endogenous in cells; host or cells: HEK293, HeLa
Procedure: as §1, §2, §3, §4, §5

[3] = target: T3, Brd3 (Homo sapiens, UniProt Q15059); test: Concentration-dependent BET degradation, immunoblot, HeLa cells; parameters: endogenous in cells; host or cells: HeLa; conditions: Brd3, 6 h treatment, 1 nM-10 μM; for Dmax: read-out: Dmax (%) maximum degradation observed
T3 sequence (Q15059 whole entry): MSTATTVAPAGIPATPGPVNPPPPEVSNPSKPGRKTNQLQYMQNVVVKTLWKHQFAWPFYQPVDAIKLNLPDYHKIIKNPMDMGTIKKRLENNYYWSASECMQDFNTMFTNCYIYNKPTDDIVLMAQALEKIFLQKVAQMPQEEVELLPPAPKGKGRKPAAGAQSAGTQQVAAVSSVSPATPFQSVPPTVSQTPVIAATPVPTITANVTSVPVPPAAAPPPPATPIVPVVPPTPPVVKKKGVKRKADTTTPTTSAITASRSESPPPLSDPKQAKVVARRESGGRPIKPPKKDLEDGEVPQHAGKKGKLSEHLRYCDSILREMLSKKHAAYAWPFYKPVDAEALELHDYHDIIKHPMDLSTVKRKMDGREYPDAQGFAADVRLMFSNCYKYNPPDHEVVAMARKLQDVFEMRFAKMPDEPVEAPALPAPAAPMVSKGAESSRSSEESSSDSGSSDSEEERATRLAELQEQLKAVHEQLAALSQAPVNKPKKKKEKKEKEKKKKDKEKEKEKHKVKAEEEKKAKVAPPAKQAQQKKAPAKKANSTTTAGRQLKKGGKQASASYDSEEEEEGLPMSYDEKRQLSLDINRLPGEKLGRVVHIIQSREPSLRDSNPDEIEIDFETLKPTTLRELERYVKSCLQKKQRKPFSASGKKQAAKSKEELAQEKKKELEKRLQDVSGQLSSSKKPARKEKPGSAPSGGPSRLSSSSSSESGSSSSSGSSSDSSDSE
Procedure: as §1, §2
as §3, with “(5×10^5)” for “(3×10^5)”, “(1×10^6)” for “(0.5×10^6)”, “the desired concentration (1 nM-10 μM),” for “1 μM concentration,”, “6 h treatment time,” for “incubation for the desired time (0-8 h),”, “(20,000g,” for “(20,000 g,”, “(Invitrogen.” for “(Invitrogen).”
(§6) Representative blots in FIG. 3 show depletion of Brd2, Brd3 and Brd4 protein levels following treatment with increasing concentrations of representative compounds. Band intensities were normalized to the β-tubulin loading control and reported as % of the average 0.1% DMSO vehicle intensity, with each point representing mean±SEM of two independent experiments (n=2). Degradation data was plotted and analysed using Prism (Graphpad, version 8)

[4] = target: T4, Brd2 (Homo sapiens, UniProt P25440); test: as above; parameters: endogenous in cells; host or cells: HeLa; conditions: Brd2, 6 h treatment, 1 nM-10 μM; for Dmax: read-out: Dmax (%) maximum degradation observed
T4 sequence (P25440 whole entry): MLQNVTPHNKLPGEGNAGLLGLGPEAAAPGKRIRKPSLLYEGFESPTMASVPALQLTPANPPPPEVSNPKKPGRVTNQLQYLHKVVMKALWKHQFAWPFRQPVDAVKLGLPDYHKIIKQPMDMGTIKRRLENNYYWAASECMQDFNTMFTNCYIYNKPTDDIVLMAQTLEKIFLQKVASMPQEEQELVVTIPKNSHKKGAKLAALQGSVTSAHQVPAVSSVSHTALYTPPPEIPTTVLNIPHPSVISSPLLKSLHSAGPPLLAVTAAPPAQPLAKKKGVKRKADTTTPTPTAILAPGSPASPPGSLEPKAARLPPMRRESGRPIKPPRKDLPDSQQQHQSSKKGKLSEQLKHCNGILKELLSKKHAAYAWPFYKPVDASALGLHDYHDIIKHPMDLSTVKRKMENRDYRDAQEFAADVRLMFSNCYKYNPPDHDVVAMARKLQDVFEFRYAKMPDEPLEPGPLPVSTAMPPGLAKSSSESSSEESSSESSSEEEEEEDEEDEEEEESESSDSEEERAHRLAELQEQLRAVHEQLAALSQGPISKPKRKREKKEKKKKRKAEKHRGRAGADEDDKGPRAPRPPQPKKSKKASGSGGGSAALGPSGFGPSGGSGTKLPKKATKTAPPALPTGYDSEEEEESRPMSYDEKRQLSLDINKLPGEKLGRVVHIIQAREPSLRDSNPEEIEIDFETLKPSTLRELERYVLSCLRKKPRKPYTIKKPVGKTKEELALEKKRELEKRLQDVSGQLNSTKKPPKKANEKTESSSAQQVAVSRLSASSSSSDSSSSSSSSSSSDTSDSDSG
Procedure: as §1, §2
as §3, with “(5×10^5)” for “(3×10^5)”, “(1×10^6)” for “(0.5×10^6)”, “the desired concentration (1 nM-10 μM),” for “1 μM concentration,”, “6 h treatment time,” for “incubation for the desired time (0-8 h),”, “(20,000g,” for “(20,000 g,”, “(Invitrogen.” for “(Invitrogen).”
as §6

[5] = target: T3, Brd3; test: Time-dependent BET degradation, immunoblot, HEK293 cells; parameters: endogenous in cells; host or cells: HEK293; conditions: HEK293, Brd3, 1 μM, timecourse 0-8 h
Procedure: as §1, §2, §3, §4, §5

[6] = target: T4, Brd2; test: as above; parameters: endogenous in cells; host or cells: HEK293; conditions: HEK293, Brd2, 1 μM, timecourse 0-8 h
Procedure: as §1, §2, §3, §4, §5

[7] = target: T1, Brd4 (S); test: Concentration-dependent BET degradation, immunoblot, HeLa cells; conditions: 6 h treatment, 1 nM-10 μM; for Dmax: read-out: Dmax (%) maximum degradation observed
Procedure: as §1, §2
as §3, with “(5×10^5)” for “(3×10^5)”, “(1×10^6)” for “(0.5×10^6)”, “the desired concentration (1 nM-10 μM),” for “1 μM concentration,”, “6 h treatment time,” for “incubation for the desired time (0-8 h),”, “(20,000g,” for “(20,000 g,”, “(Invitrogen.” for “(Invitrogen).”
as §6

[8] = target: T2, Brd4 (L); test: as above; conditions: 6 h treatment, 1 nM-10 μM; for Dmax: read-out: Dmax (%) maximum degradation observed
Procedure: as §1, §2
as §3, with “(5×10^5)” for “(3×10^5)”, “(1×10^6)” for “(0.5×10^6)”, “the desired concentration (1 nM-10 μM),” for “1 μM concentration,”, “6 h treatment time,” for “incubation for the desired time (0-8 h),”, “(20,000g,” for “(20,000 g,”, “(Invitrogen.” for “(Invitrogen).”
as §6

[9] = target: T1, Brd4 (S); test: Concentration-dependent BET degradation, immunoblot, HEK293 cells; conditions: 6 h treatment, 1 nM-10 μM; for Dmax: read-out: Dmax (%) maximum degradation observed
Procedure: as §1, §2
as §3, with “(5×10^5)” for “(3×10^5)”, “(1×10^6)” for “(0.5×10^6)”, “the desired concentration (1 nM-10 μM),” for “1 μM concentration,”, “6 h treatment time,” for “incubation for the desired time (0-8 h),”, “(20,000g,” for “(20,000 g,”, “(Invitrogen.” for “(Invitrogen).”
as §6

[10] = target: T2, Brd4 (L); test: as above; conditions: 6 h treatment, 1 nM-10 μM; for Dmax: read-out: Dmax (%) maximum degradation observed
Procedure: as §1, §2
as §3, with “(5×10^5)” for “(3×10^5)”, “(1×10^6)” for “(0.5×10^6)”, “the desired concentration (1 nM-10 μM),” for “1 μM concentration,”, “6 h treatment time,” for “incubation for the desired time (0-8 h),”, “(20,000g,” for “(20,000 g,”, “(Invitrogen.” for “(Invitrogen).”
as §6

[11] = target: T1, Brd4 (S); test: Time-dependent BET degradation, immunoblot, HeLa cells; parameters: dose or concentration left out as unconfirmed; conditions: timecourse 0-8 h
Procedure: as §1, §2, §3, §4, §5

[12] = target: T2, Brd4 (L); test: as above; parameters: dose or concentration left out as unconfirmed; conditions: timecourse 0-8 h
Procedure: as §1, §2, §3, §4, §5

[13] = target: T3, Brd3; test: as above; parameters: endogenous in cells; host or cells: HeLa; conditions: Brd3, 1 μM, timecourse 0-8 h
Procedure: as §1, §2, §3, §4, §5

[14] = target: T4, Brd2; test: as above; parameters: endogenous in cells; host or cells: HeLa; conditions: Brd2, 1 μM, timecourse 0-8 h
Procedure: as §1, §2, §3, §4, §5

[15] = target: T3, Brd3; test: Concentration-dependent BET degradation, immunoblot, HEK293 cells; parameters: endogenous in cells; host or cells: HEK293; conditions: HEK293, Brd3, 6 h treatment, 1 nM-10 μM; for Dmax: read-out: Dmax (%) maximum degradation observed
Procedure: as §1, §2
as §3, with “(5×10^5)” for “(3×10^5)”, “(1×10^6)” for “(0.5×10^6)”, “the desired concentration (1 nM-10 μM),” for “1 μM concentration,”, “6 h treatment time,” for “incubation for the desired time (0-8 h),”, “(20,000g,” for “(20,000 g,”, “(Invitrogen.” for “(Invitrogen).”
as §6

[16] = target: T4, Brd2; test: as above; parameters: endogenous in cells; host or cells: HEK293; conditions: HEK293, Brd2, 6 h treatment, 1 nM-10 μM; for Dmax: read-out: Dmax (%) maximum degradation observed
Procedure: as §1, §2
as §3, with “(5×10^5)” for “(3×10^5)”, “(1×10^6)” for “(0.5×10^6)”, “the desired concentration (1 nM-10 μM),” for “1 μM concentration,”, “6 h treatment time,” for “incubation for the desired time (0-8 h),”, “(20,000g,” for “(20,000 g,”, “(Invitrogen.” for “(Invitrogen).”
as §6

[17] = system: MV4-11 cells; test: Anti-proliferative effect, CellTiter-Glo assay; conditions: MV4-11, CellTiter-Glo, 72 h incubation, 5 μM and below
Procedure: The anti-proliferative effects of representative compounds were measured using the CellTiter-Glo assay (Promega). MV4-11 cells were incubated in a sterile, white, clear-bottomed 384-well cell-culture microplate (Greiner Bio-one), at 2× concentration in RPMI media and a volume of 25 μl. The next day, test compounds were serially diluted in RPMI media to 2× concentration, then added to cells to make a final volume of 50 μl. After a 72 h incubation 25 μl of CellTiter-Glo reagent was added to each well. Following 15 minute incubation the luminescence signal was read on a Pherastar FS. The final concentration of assay components are as follows: 3×10^5 cells/mL, 0.05% DMSO, 5 μM and below compound. Data (FIG. 11) was processed and dose-response curves generated using Prism 8 (Graphpad).

Compound | Dmax [1] [%] | Dmax [2] [%] | DC50 [3] [µM] | Dmax [3] [%] | DC50 [4] [µM] | Dmax [4] [%] | Dmax at 1 µM [5] [%] | Dmax at 1 µM [6] [%] | DC50 [7] [µM] | Dmax [7] [%] | DC50 [8] [µM] | Dmax [8] [%] | DC50 [9] [µM] | Dmax [9] [%] | DC50 [10] [µM] | Dmax [10] [%] | Dmax [11] [%] | Dmax [12] [%] | Dmax [15] [%] | Dmax [16] [%] | further results
CCCC(NC(=O)/C(C#N)=C/c1cccc(Br)n1)c1ccc(OCC=NOCC(=O)NCCOCCNC(=O)c2ccc3c(c2)[C@H](Nc2ccc(Cl)cc2)C[C@H](C)N3C(C)=O)cc1 (stereo partly drawn) [Example 05IB1] | 100 | 100 | ≤ 0.05 | 26 to 50 | 0.051 to 0.5 | ≤ 25 | 100 | 100 | ≤ 0.05 | ≥ 71 | 0.051 to 0.5 | 26 to 50 | ≤ 0.05 | ≥ 71 | ≤ 0.05 | ≥ 71 | 100 | 100 | ≥ 71 | 51 to 70 | Dmax at 1 µM [13]: 100%; Dmax at 1 µM [14]: 100%; DC50 [15]: ≤ 0.05 µM; DC50 [16]: ≤ 0.05 µM
CCCC(NC(=O)/C(C#N)=C/c1nc(Cl)ccc1Cl)c1ccc(OCCOCCOCCOCCOCCOCCOCCNC(=O)c2ccc(-c3ccc4c(c3)[C@H](Nc3ccc(Cl)cc3)C[C@H](C)N4C(C)=O)cc2)cc1 (stereo partly drawn) [Example 05IB10] | 99 | 100 | 0.051 to 0.5 | ≥ 71 | ≤ 0.05 | ≥ 71 | 90 | 82 | 0.051 to 0.5 | ≥ 71 | ≤ 0.05 | 51 to 70 | ≤ 0.05 | ≥ 71 | ≤ 0.05 | ≥ 71 | 100 | 100 | ≥ 71 | 51 to 70 | Dmax at 1 µM [13]: 100%; Dmax at 1 µM [14]: 97%; DC50 [15]: 0.051 to 0.5 µM; DC50 [16]: 0.051 to 0.5 µM
CCC[C@H](NC(=O)/C(C#N)=C/c1cccc(Br)n1)c1ccccc1 [Degrasyn, reference compound] | – | – | – | – | – | – | – | – | – | – | – | – | – | – | – | – | – | – | – | – | cytotoxicity profile (anti-proliferative effect) [17]: significantly less cytotoxicity
CCCC(NC(=O)/C(C#N)=C/c1cccc(Br)n1)c1ccc(OCC=NOCC(=O)NCCOCCOCCOCCNC(=O)c2ccc3c(c2)[C@H](Nc2ccc(Cl)cc2)C[C@H](C)N3C(C)=O)cc1 (stereo partly drawn) [Example 05IB2] | 100 | 100 | 0.051 to 0.5 | 26 to 50 | 0.051 to 0.5 | 26 to 50 | 100 | 76 | 0.051 to 0.5 | ≥ 71 | 0.051 to 0.5 | ≥ 71 | ≤ 0.05 | ≥ 71 | ≤ 0.05 | ≥ 71 | 67 | 67 | ≥ 71 | 51 to 70 | Dmax at 1 µM [13]: 93%; Dmax at 1 µM [14]: 50%; DC50 [15]: 0.051 to 0.5 µM; DC50 [16]: 0.051 to 0.5 µM
CCCC(NC(=O)C(C#N)Cc1cccc(Br)n1)c1ccc(OCCOCCOCCOCCOCCOCCOCCNC(=O)c2ccc(-c3ccc4c(c3)[C@H](Nc3ccc(Cl)cc3)C[C@H](C)N4C(C)=O)cc2)cc1 (stereo partly drawn) [Example 05IB12] | – | – | – | 26 to 50 | – | ≤ 25 | – | – | – | ≤ 25 | – | ≤ 25 | – | 26 to 50 | – | ≤ 25 | – | – | ≤ 25 | ≤ 25 | –
